Holding throughout (type): cell-based
In assay [1] the test system is Stachybotrys chartarum (DSM 2144). Kind of assay: Example 4 liquid culture assay on 24 and 48 well plates, 3 way mixtures. To be noted: test 015-2005, S. chartarum. The method, then:
[…] Spore suspensions were produced for each fungus. Spore concentrations of approx. 100,000 spores/ml were used.
(§1) Test method used: liquid culture assay on 24 and 48 well plates respectively.
(§2) For testing of the 3 way mixtures each of the formulated fungicide (100 ul) was filled into the 24 and 48 well plates respectively. Afterwards 700 ul of 0.3% AE media was added to the plate. The spore suspension of the specific fungi was added to this media in advance containing approx. 100,000 spores/ml. For testing the solo compounds the equivalent of distilled water was added instead of the formulated fungicide volume of the mixing partners. The plates were then sealed and incubated at 24° C.
(§3) Dependent on the growth properties of each organisms, the evaluation was done after 3 to 6 days, when the surface of the check well was covered with mycelium. The evaluation was performed by assessing the growth of the fungi related to the check growth. The results are expressed as % activity relative to the check (values of 0-100% growth). Afterwards the results were converted in % growth inhibition.
(§4) For the mixtures of different fungicides the synergism was calculated based on the Colby equation, which is described above.

In assay [2] the test system is Aureobasidium pullulans (ATCC 15233). Kind of assay: Example 3 liquid culture assay on 24 well plates, solo and 2-way mixtures.
In assay [3] the test system is Aspergillus niger (DSM 63263). Kind of assay: Example 4 liquid culture assay on 24 and 48 well plates, 3 way mixtures. The note with it: A. niger, AZO 0.05 mg ai/l.
Excerpt: For test 006-2005: Alternaria tenuissima (DSM 63360), Penicillium chrysogenum (DSM 895), Cladosporium cladosporoides (DSM62121), Aspergillus niger (DSM 63263), Aspergillus versicolor (DSM 1943) and Aureobasidium pullulans (ATCC 15233) were separately cultivated on PDA media to […] sporulation. Spore suspensions were produced for each fungus. Spore concentrations of approx. 100,000 spores/ml were used.
For test 015-2006: Alternaria tenuissima (DSM 63360), Penicillium pinophilum (CBS342.61), Gliocladium virens (DSM1963), Aspergillus niger (DSM 63263), Stachybotrys chartarum (DSM 2144) and Aureobasidium pullulans (ATCC 15233) were separately cultivated on PDA media to […] sporulation. Spore suspensions were produced for each fungus. Spore concentrations of approx. 100,000 spores/ml were used.
as §1, §2, §3, §4

On to `CO/C=C(/C(=O)OC)c1ccccc1Oc1cc(Oc2ccccc2C#N)ncn1` [Azoxystrobin], for which the “inh % (AZO alone)” value was 10% in assay [1] (AZO 0.8 mg ai/l); 10% in assay [1] (AZO 1.6 mg ai/l); 30% in assay [1] (AZO 3.1 mg ai/l); 0% in assay [2] (test 006-2005, rate (AZO) 0.05 mg ai/l); 10% in assay [2] (test 006-2005, rate (AZO) 0.2 mg ai/l); 10% in assay [2] (test 006-2005, rate (AZO) 0.8 mg ai/l). Also, the “inh % (AZO alone)” value was determined as 10% in assay [2] (test 006-2005, rate (AZO) 1.6 mg ai/l); 10% in assay [2] (test 006-2005, rate (AZO) 3.12 mg ai/l); 10% in assay [2] (test 006-2005, rate (AZO) 12.5 mg ai/l); 0% in assay [2] (test 015-2005, rate (AZO) 12.5 mg ai/l); 0% in assay [2] (test 015-2005, rate (AZO) 25 mg ai/l); 0% in assay [2] (test 015-2005, rate (AZO) 50 mg ai/l). Besides, the “inh % (AZO alone)” value in assay [2] (test 015-2005, rate (AZO) 100 mg ai/l) is listed as 0%; in assay [3] (test 006-2005), 10%; in assay [3] (test 015-2005), 0%.

For the origin of these results see patent US8138196B2, “Antifungal wallboards and building materials and methods for the production thereof” (Syngenta Crop Protection, Inc., priority 2005, dated 2012).
